For 29 compounds, IC50 results are on record in patent US7750003B2, “Compounds-943” (AstraZeneca AB, priority 2006, dated 2010).

Sequence of recombinant mTOR (FLAG-tagged, residues 1362-2549) (P42345 1362-2549): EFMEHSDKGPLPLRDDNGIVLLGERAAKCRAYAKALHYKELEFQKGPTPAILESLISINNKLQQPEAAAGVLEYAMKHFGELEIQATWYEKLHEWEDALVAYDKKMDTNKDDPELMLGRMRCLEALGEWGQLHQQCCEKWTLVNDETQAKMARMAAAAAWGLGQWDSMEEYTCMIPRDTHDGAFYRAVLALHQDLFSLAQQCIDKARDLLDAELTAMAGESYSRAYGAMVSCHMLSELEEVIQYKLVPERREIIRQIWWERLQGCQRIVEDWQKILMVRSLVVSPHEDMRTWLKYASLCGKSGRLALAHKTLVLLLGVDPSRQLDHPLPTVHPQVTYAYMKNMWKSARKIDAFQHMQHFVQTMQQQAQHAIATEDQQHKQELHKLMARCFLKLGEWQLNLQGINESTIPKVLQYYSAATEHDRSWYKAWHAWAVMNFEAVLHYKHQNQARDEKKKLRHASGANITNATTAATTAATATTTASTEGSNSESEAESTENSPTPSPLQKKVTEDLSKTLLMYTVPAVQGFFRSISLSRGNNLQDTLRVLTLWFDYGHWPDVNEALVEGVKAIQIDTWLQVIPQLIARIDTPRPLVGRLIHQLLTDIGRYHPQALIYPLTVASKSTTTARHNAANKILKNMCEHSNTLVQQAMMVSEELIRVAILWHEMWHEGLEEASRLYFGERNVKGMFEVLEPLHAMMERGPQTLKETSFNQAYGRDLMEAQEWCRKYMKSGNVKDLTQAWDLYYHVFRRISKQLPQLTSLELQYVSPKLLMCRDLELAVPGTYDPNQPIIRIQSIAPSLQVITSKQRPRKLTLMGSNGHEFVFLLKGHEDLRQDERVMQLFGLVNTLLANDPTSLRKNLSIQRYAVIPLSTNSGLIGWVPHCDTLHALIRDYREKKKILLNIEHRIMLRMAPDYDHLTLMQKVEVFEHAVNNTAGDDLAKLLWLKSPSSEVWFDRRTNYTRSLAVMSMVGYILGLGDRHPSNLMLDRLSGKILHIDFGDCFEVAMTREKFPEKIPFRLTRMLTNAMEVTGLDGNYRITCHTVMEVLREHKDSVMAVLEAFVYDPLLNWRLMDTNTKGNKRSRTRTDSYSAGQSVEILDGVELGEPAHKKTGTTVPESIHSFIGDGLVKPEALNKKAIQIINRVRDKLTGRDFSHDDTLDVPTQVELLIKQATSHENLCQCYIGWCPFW

The assay concerns the target recombinant mTOR (FLAG-tagged, residues 1362-2549) (Homo sapiens, UniProt P42345). Briefly: In vitro mTOR kinase assay (Test (a), AlphaScreen). The assay is classed as biochemical. Particulars: ATP 20 μM, read-out: Test (a): IC50 versus mTOR kinase. Here is the method:
(a) In Vitro mTOR Kinase Assay
Following expression in the mammalian HEK293 cell line, expressed protein was purified using the FLAG epitope tag using standard purification techniques.
Aliquots (2 μl) of each compound dilution were placed into a well of a Greiner 384-well low volume (LV) white polystyrene plate (Greiner Bio-one).
These assay solutions were incubated for 2 hours at room temperature.
The resultant signals arising from laser light excitation at 680 nm were read using a Packard Envision instrument.
The phosphorylated biotinylated peptide that is associated with AlphaScreen Streptavidin donor beads forms a complex with the p70 S6 Kinase (T389) 1A5 Monoclonal Antibody that is associated with Alphascreen Protein A acceptor beads. Upon laser light excitation at 680 nm, the donor bead: acceptor bead complex produces a signal that can be measured. Accordingly, the presence of mTOR kinase activity results in an assay signal. In the presence of an mTOR kinase inhibitor, signal strength is reduced.
mTOR enzyme inhibition for a given test compound was expressed as an IC50 value.
Consider `C[C@H]1COCCN1c1cc(C(C)(C)S(C)(=O)=O)nc(-c2cc(F)c(NC(=O)NC3CC3)c(F)c2)n1` [Example 24ad, 3-cyclopropyl-1-[2,6-difluoro-4-[4-[(3S)-3-methylmorpholin-4-yl]-6-(2-methylsulfonylpropan-2-yl)pyrimidin-2-yl]phenyl]urea], for which the IC50 was 0.51 µM.

For `C[C@H]1COCCN1c1cc(C(C)(C)S(C)(=O)=O)nc(-c2ccc(NC(=O)Nc3ccc(F)cn3)cc2)n1` [Example 24y, 3-(5-fluoropyridin-2-yl)-1-[4-[4-[(3S)-3-methylmorpholin-4-yl]-6-(2-methylsulfonylpropan-2-yl)pyrimidin-2-yl]phenyl]urea], the 50% inhibitory concentration (IC50) was found to be 2.2 µM. For the compound `CNC(=O)CS(=O)(=O)Cc1cc(N2CCOC[C@@H]2C)nc(-c2ccc(NC(=O)NC)cc2)n1` [Example 26, N-Methyl-2-[[2-[4-(methylcarbamoylamino)phenyl]-6-[(3S)-3-methylmorpholin-4-yl]pyrimidin-4-yl]methylsulfonyl]acetamide], the IC50 was 0.029 µM. Turning to `C[C@H]1COCCN1c1cc(CS(=O)(=O)CC(N)=O)nc(-c2ccc(NC(=O)N(C)C)cc2)n1` [Example 17, 2-[[2-[4-(Dimethylcarbamoylamino)phenyl]-6-[(3S)-3-methylmorpholin-4-yl]pyrimidin-4-yl]methylsulfonyl]acetamide], the half-maximal inhibitory concentration (IC50) was found to be 1.1 µM. With `C[C@H]1COCCN1c1cc(CS(C)(=O)=O)nc(-c2ccc(NC(=O)N3CCCC3)cc2)n1` [Example 35c, N-[4-[4-[(3S)-3-methylmorpholin-4-yl]-6-(methylsulfonylmethyl)pyrimidin-2-yl]phenyl]pyrrolidine-1-carboxamide], the half-maximal inhibitory concentration (IC50) came out at 3.4 µM. As to `C[C@H]1COCCN1c1cc(CS(=O)(=O)c2ccccc2C(F)(F)F)nc(-c2ccc(NC(=O)NC3CC3)cc2)n1` [Example 43f, 3-cyclopropyl-1-[4-[4-[(3S)-3-methylmorpholin-4-yl]-6-[[2-(trifluoromethyl)phenyl]sulfonylmethyl]pyrimidin-2-yl]phenyl]urea], the half-inhibitory concentration (IC50) was 0.11 µM. Take `C[C@H]1COCCN1c1cc(CS(C)(=O)=O)nc(-c2ccc(NC(=O)NCc3ccncc3)cc2)n1` [Example 24e, 1-[4-[4-[(3S)-3-methylmorpholin-4-yl]-6-(methylsulfonylmethyl)pyrimidin-2-yl]phenyl]-3-(pyridin-4-ylmethyl)urea]: the IC50 came out at 0.81 µM. With `CN(C)CCNC(=O)Nc1ccc(-c2nc(N3CCOCC3)cc(C(C)(C)S(C)(=O)=O)n2)cc1` [Example 21c, 3-(2-dimethylaminoethyl)-1-[4-[4-(2-methylsulfonylpropan-2-yl)-6-morpholin-4-yl-pyrimidin-2-yl]phenyl]urea], the 50% inhibitory concentration (IC50) is 0.48 µM. As for `CNC(=O)Nc1ccn(-c2nc(CS(C)(=O)=O)cc(N3CCOC[C@@H]3C)n2)n1` [Example 24k, 3-methyl-1-[1-[4-[(3S)-3-methylmorpholin-4-yl]-6-(methylsulfonylmethyl)pyrimidin-2-yl]pyrazol-3-yl]urea], the IC50 was found to be 0.18 µM. In the case of `C[C@H]1COCCN1c1cc(CS(=O)(=O)c2nccs2)nc(-c2ccc(NC(=O)NC3CC3)cc2)n1` [Example 43e, 3-cyclopropyl-1-[4-[4-[(3S)-3-methylmorpholin-4-yl]-6-(1,3-thiazol-2-ylsulfonylmethyl)pyrimidin-2-yl]phenyl]urea] it was 0.13 µM; in that of `C[C@H]1COCCN1c1cc(CS(C)(=O)=O)nc(-c2cnc(NC(=O)NC3CC3)s2)n1` [Example 46i, 3-cyclopropyl-1-[5-[4-[(3S)-3-methylmorpholin-4-yl]-6-(methylsulfonylmethyl)pyrimidin-2-yl]-1,3-thiazol-2-yl]urea], 0.097 µM; in that of `C[C@H]1COCCN1c1cc(CS(C)(=O)=O)nc(-c2ccc(NC(=O)NCc3ccccn3)cc2)n1` [Example 24d, 1-[4-[4-[(3S)-3-methylmorpholin-4-yl]-6-(methylsulfonylmethyl)pyrimidin-2-yl]phenyl]-3-(pyridin-2-ylmethyl)urea], 4.4 µM.

As to `C[C@H]1COCCN1Cc1cc(N2CCOC[C@@H]2C)nc(-c2ccc(NC(=O)NC3CC3)cc2)n1` [Example 49l, 3-cyclopropyl-1-[4-[4-[(3S)-3-methylmorpholin-4-yl]-6-[[(3S)-3-methylmorpholin-4-yl]methyl]pyrimidin-2-yl]phenyl]urea], the IC50 worked out at 1.6 µM. Under `CCNC(=O)Nc1ccc(-c2nc(CS(=O)(=O)c3ccccn3)cc(N3CCOC[C@@H]3C)n2)cc1` [Example 71, 3-Ethyl-1-[4-[4-[(3S)-3-methylmorpholin-4-yl]-6-(pyridin-2-ylsulfonylmethyl)pyrimidin-2-yl]phenyl]urea] stands 0.032 µM; under `C[C@H]1COCCN1c1cc(CNC2CC2)nc(-c2ccc(NC(=O)NC3CC3)cc2)n1` [Example 49, 3-Cyclopropyl-1-[4-[4-[(cyclopropylamino)methyl]-6-[(3S)-3-methylmorpholin-4-yl]pyrimidin-2-yl]phenyl]urea], 0.033 µM; under `Cc1cccc(C)c1NC(=O)Nc1ccc(-c2nc(CS(C)(=O)=O)cc(N3CCOC[C@@H]3C)n2)cc1` [Example 22b, 1-(2,6-dimethylphenyl)-3-[4-[4-[(3S)-3-methylmorpholin-4-yl]-6-(methylsulfonylmethyl)pyrimidin-2-yl]phenyl]urea], 1.6 µM. Consider `CCNC(=O)Nc1ccc(-c2nc(CS(=O)(=O)C(C)C)cc(N3CCOC[C@@H]3C)n2)cc1` [Example 20q, 1-ethyl-3-[4-[4-[(3S)-3-methylmorpholin-4-yl]-6-(propan-2-ylsulfonylmethyl)pyrimidin-2-yl]phenyl]urea], for which the IC50 is 0.039 µM. `CS(=O)(=O)Cc1cc(N2CCOCC2)nc(-c2ccc(NC(=O)Nc3ccon3)cc2)n1` [Example 34a, 1-[4-[4-(methylsulfonylmethyl)-6-morpholin-4-yl-pyrimidin-2-yl]phenyl]-3-(1,2-oxazol-3-yl)urea]: the concentration for half-maximal inhibition (IC50) was determined as 0.042 µM. For `CNC(=O)Nc1ccc(-c2nc(CS(=O)(=O)C(C)C)cc(N3CCOCC3)n2)cc1` [Example 20k, 3-methyl-1-[4-[4-morpholin-4-yl-6-(propan-2-ylsulfonylmethyl)pyrimidin-2-yl]phenyl]urea], the half-maximal inhibitory concentration (IC50) was found to be 0.036 µM.

`C[C@H]1COCCN1c1cc(CS(C)(=O)=O)nc(-c2ccc(NC(=O)N3CCC(O)CC3)cc2)n1` [Example 35e, 4-hydroxy-N-[4-[4-[(3S)-3-methylmorpholin-4-yl]-6-(methylsulfonylmethyl)pyrimidin-2-yl]phenyl]piperidine-1-carboxamide]: the 50% inhibitory concentration (IC50) is 2.5 µM. Regarding `C[C@H]1COCCN1c1cc(C(=O)N2CCN(C)CC2)nc(-c2ccc(NC(=O)NC3CC3)cc2)n1` [Example 36b, 3-cyclopropyl-1-[4-[4-[(3S)-3-methylmorpholin-4-yl]-6-(4-methylpiperazine-1-carbonyl)pyrimidin-2-yl]phenyl]urea], the IC50 was determined as 0.18 µM. In the case of `CC(C)(c1cc(N2CCOCC2)nc(-c2ccc(NC(=O)NC3CC3)cc2)n1)S(C)(=O)=O` [Example 21b, 3-cyclopropyl-1-[4-[4-(2-methylsulfonylpropan-2-yl)-6-morpholin-4-yl-pyrimidin-2-yl]phenyl]urea], the IC50 came out at 0.36 µM.

In the case of `COCCNC(=O)Nc1ccc(-c2nc(CS(=O)(=O)C(C)C)cc(N3CCOC[C@@H]3C)n2)cc1` [Example 20u, 3-(2-methoxyethyl)-1-[4-[4-[(3S)-3-methylmorpholin-4-yl]-6-(propan-2-ylsulfonylmethyl)pyrimidin-2-yl]phenyl]urea], the 50% inhibitory concentration (IC50) turned out to be 0.27 µM. On to `COCCCNC(=O)Nc1ccc(-c2nc(CS(C)(=O)=O)cc(N3CCOC[C@@H]3C)n2)cc1` [Example 35b, 3-(3-methoxypropyl)-1-[4-[4-[(3S)-3-methylmorpholin-4-yl]-6-(methylsulfonylmethyl)pyrimidin-2-yl]phenyl]urea], for which the IC50 was 0.42 µM. Consider `C[C@H]1COCCN1c1cc(CS(C)(=O)=O)nc(-c2cnc(NC(=O)N(C)C3CC3)s2)n1` [Example 46e, 1-cyclopropyl-1-methyl-3-[5-[4-[(3S)-3-methylmorpholin-4-yl]-6-(methylsulfonylmethyl)pyrimidin-2-yl]-1,3-thiazol-2-yl]urea], for which the IC50 was 0.71 µM. In the case of `C[C@H]1COCCN1c1cc(CS(C)(=O)=O)nc(-c2ccc(NC(=O)Nc3ncccn3)cc2)n1` [Example 22a, 1-[4-[4-[(3S)-3-methylmorpholin-4-yl]-6-(methylsulfonylmethyl)pyrimidin-2-yl]phenyl]-3-pyrimidin-2-yl-urea] it was 0.06 µM; in that of `CNC(=O)Nc1ccc(-c2nc(CS(=O)(=O)c3ccccc3)cc(N3CCOCC3)n2)cc1` [Example 20, 3-[4-[4-(Benzenesulfonylmethyl)-6-morpholin-4-yl-pyrimidin-2-yl]phenyl]-1-methyl-urea], 0.043 µM.

For `C[C@H]1COCCN1c1cc(CS(=O)(=O)c2ccncc2)nc(-c2ccc(NC(=O)NCc3cnn(C)c3)cc2)n1` [Example 53c, 1-[4-[4-[(3S)-3-methylmorpholin-4-yl]-6-(pyridin-4-ylsulfonylmethyl)pyrimidin-2-yl]phenyl]-3-[(1-methylpyrazol-4-yl)methyl]urea], the IC50 amounted to 0.03 µM.

As to `C[C@H]1COCCN1c1cc(CS(C)(=O)=O)nc(-c2ccc(NC(=O)Nc3cnn(C)c3)cc2)n1` [Example 22f, 1-[4-[4-[(3S)-3-methylmorpholin-4-yl]-6-(methylsulfonylmethyl)pyrimidin-2-yl]phenyl]-3-(1-methylpyrazol-4-yl)urea], the 50% inhibitory concentration (IC50) is 0.091 µM.

For orientation: IC50 means the concentration needed to halve the response being measured.
